Laboratory results as given in US10189863B2, “5,6-dihydro-4H-benzo[b]thieno-[2,3-d]azepine derivatives” (PULMOCIDE LIMITED, priority 2014, dated 2019).

What was measured:
[1] = Cell viability: resazurin assay; assay type: cell-based, human; details: human, HEp2 cells
Procedure, shortened: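 HEp2 cells in 5% FBS DMEM exposed to compounds (0.5% DMSO final) for 5 days at 37 °C/5% CO2, then resazurin added for 6 h; fluorescence read at 545/590 nm. Percent viability loss calculated versus 0.5% DMSO vehicle, with increases shown as negative values; CC50 taken from concentration-response curves where appropriate.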

[2] = tested on: RSV A2 F-protein expression in BEAS2B bronchial epithelial cells; test: Assessment of RSV F protein expression in BEAS2B bronchial epithelial cells; assay type: cell-based; details: human respiratory syncytial virus, BEAS-2B, 72 h, read-out: RSV A2 F-protein IC50 (nM)
Experimental: Assessment of RSV F Protein Expression in BEAS2B Bronchial Epithelial Cells
An early event which follows the infection of epithelial cells by RSV is the expression of RSV F-protein on the cells' surface. BEAS2B cells (SV40-immortalised human bronchial epithelial cell line) were grown in 96 well plates. Once more than 70% confluent, cells were infected with RSV A2 (#0709161v, NCPV, Public Health England, Wiltshire) at an MOI of 0.01 in clear RPMI-1640 medium (Life technologies, Paisley, UK) with 2% FBS (Life technologies, Paisley, UK), and incubated for 3 days (37° C./5% CO2).
Supernatant was aspirated and the cells were fixed with 4% formaldehyde (100 μL in PBS solution) for 20 min, washed 3 times with washing buffer (200 μL; PBS containing 0.05% Tween-20) and incubated with blocking solution (100 μL; 5% Marvel milk in PBS) for 1 hr. Cells were then washed with washing buffer (200 μL) and incubated for 1 hr at 37° C. with anti-RSV (2F7; mouse monoclonal, lot 160290, Cat. No. ab43812, Abcam plc, Cambridge, UK) F-fusion protein antibody (50 μL; prepared at a 1:1000 dilution in 5% milk/PBS-tween). After washing, cells were incubated with an HRP-conjugated anti-mouse IgG antibody (50 μL prepared at a 1:2000 dilution in 5% milk in PBS; lot 00095437, Cat.No. P0447, Dako UK Ltd, Cambridgeshire, UK) for 1 hr. Cells were washed twice with washing buffer and once with PBS. TMB substrate (100 μL; substrate reagent pack lot 320436, Cat. No. DY999, R&D Systems, Inc. Abingdon, UK) was then added and the reaction was stopped by the addition of aq sulfuric acid (50 μL; 2N). The resultant signal was determined colourimetrically (OD: 450 nm with a reference wavelength of 655 nm) in a microplate reader (Multiskan FC®, ThermoFisher Scientific). Cells were then washed and 1% crystal violet solution (50 μL; lot SLB4576, Cat. No. HT90132-1L, Sigma-Aldrich) was applied for 30 min. After washing with PBS (200 μL) 3 times, 1% SDS (100 μL) was added to each well, and plates were shaken lightly for 1 hr prior to reading the absorbance at 595 nm. The measured OD450-655 readings were corrected for cell number by dividing the OD450-655 by the OD595 readings. The percentage inhibition for each well was calculated and the IC50 value derived from the concentration-response curve generated for each test compound.

[3] = tested on: RSV A2 strain; test: Assessment of RSV induced CPE in HEp2 cells (RSV A2 strain); assay type: cell-based; details: human respiratory syncytial virus, HEp2 cells; for IC50: HEp-2, 120 h, 1 MOI, 5 days, read-out: RSV A2 CPE IC50; for inhibition at 0.1 µg/mL / inhibition at 0.01 µg/mL: HEp-2; for inhibition at 0.1 µg/mL: Inhibition (%) at 0.1 μg/mL, read-out: RSV A2 CPE % Inhibition; for inhibition at 0.01 µg/mL: Inhibition (%) at 0.01 μg/mL
Procedure, shortened: (§1)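 HEp2 cells were infected at MOI 1 with RSV A2 or RSV B Washington, with compound added at the same time (0.5% DMSO final). Incubation was 5 days for A2 and 6 days for B, then viability was read by resazurin fluorescence (545/590 nm) after 6 h. IC50, IC75 and IC90 came from concentration-response curves.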

[4] = tested on: RSV B Washington strain; test: Assessment of RSV induced CPE in HEp2 cells (RSV B Washington strain); assay type: cell-based; details: human respiratory syncytial virus, HEp2 cells; for IC50: HEp-2, 144 h, 1 MOI, 6 days, read-out: RSV B CPE IC50; for inhibition at 1 µg/mL / inhibition at 0.1 µg/mL: HEp-2; for inhibition at 1 µg/mL: Inhibition (%) at 1 μg/mL, read-out: RSV B CPE % Inhibition; for inhibition at 0.1 µg/mL: Inhibition (%) at 0.1 μg/mL
Procedure, shortened: as §1

SMILES | CC50 at 5 days [1] [µM] | IC50 [2] [nM] | IC50 [3] [nM] | inhibition at 0.1 µg/mL [3] [%] | IC50 [4] [nM] | inhibition at 1 µg/mL [4] [%] | inhibition at 0.01 µg/mL [3] [%] | inhibition at 0.1 µg/mL [4] [%]
O=C(Nc1c(F)cccc1F)c1cc2c(s1)-c1ccccc1N(C(=O)c1ccc(NC(=O)c3cccnc3N3CC4(CCOCC4)C3)cc1F)CC2 [Example 30, 6-(4-(2-(7-oxa-2-azaspiro[3.5]nonan-2-yl)nicotinamido)-2-fluorobenzoyl)-N-(2,6-difluorophenyl)-5,6-dihydro-4H-benzo[b]thieno[2,3-d]azepine-2-carboxamide] | > 13.8 | 0.27 | 0.12 | 100 | 27.3 | 94 | – | –
O=C(Nc1c(F)cccc1Cl)c1cc2c(s1)-c1ccccc1N(C(=O)c1ccc(NC(=O)c3cc4c(nc3N3CC5(CCOCC5)C3)CCC4)cc1)CC2 [Example 76, 6-(4-(2-(7-oxa-2-azaspiro[3.5]nonan-2-yl)-6,7-dihydro-5H-cyclopenta[b]pyridine-3-carboxamido)benzoyl)-N-(2-chloro-6-fluorophenyl)-5,6-dihydro-4H-benzo[b]thieno[2,3-d] azepine-2-carboxamide] | > 13.1 | 0.32 | 0.15 | – | 1.4 | 100 | 100 | –
Cc1ccccc1NC(=O)c1cc2c(s1)-c1ccccc1N(C(=O)c1ccc(NC(=O)c3cccnc3N3CC4(CCOCC4)C3)cc1)CC2 [Example 14, 6-(4-(2-(7-oxa-2-azaspiro[3.5]nonan-2-yl)nicotinamido)benzoyl)-N-(o-tolyl)-5,6-dihydro-4H-benzo[b]thieno[2,3-d] azepine-2-carboxamide] | > 14.6 | 0.41 | 0.65 | 100 | 54.5 | 92 | – | –
Cc1cccc(F)c1NC(=O)c1cc2c(s1)-c1ccccc1N(C(=O)c1ccc(NC(=O)c3cc4ccccc4nc3N3CC4(CCOCC4)C3)cc1)CC2 [Example 10, 6-(4-(2-(7-Oxa-2-azaspiro[3.5]nonan-2-yl)quinoline-3-carboxamido)benzoyl)-N-(2-fluoro-6-methylphenyl)-5,6-dihydro-4H-benzo[b]thieno[2,3-d]azepine-2-carboxamide] | > 13.3 | 0.48 | 0.11 | 100 | 1.5 | – | – | 100
O=C(Nc1c(F)cccc1Cl)c1cc2c(s1)-c1ccccc1N(C(=O)c1ccc(NC(=O)c3cc4ccccc4nc3N3CC4(CCOCC4)C3)cc1)CC2 [Example 87, 6-(4-(2-(7-oxa-2-azaspiro[3.5]nonan-2-yl)quinoline-3-carboxamido)benzoyl)-N-(2-chloro-6-fluorophenyl)-5,6-di-hydro-4H-benzo[b]thieno[2,3-d]azepine-2-carboxamide] | > 12.9 | 0.49 | 0.54 | – | 15.8 | – | 94 | 100
O=C(Nc1ccc(F)cc1Cl)c1cc2c(s1)-c1ccccc1N(C(=O)c1ccc(NC(=O)c3cccnc3N3CC4(CCOCC4)C3)cc1)CC2 [Example 27, 6-(4-(2-(7-oxa-2-azaspiro[3.5]nonan-2-yl)nicotinamido)benzoyl)-N-(2-chloro-4-fluorophenyl)-5,6-dihydro-4H-benzo [b]thieno[2,3-d]azepine-2-carboxamide] | > 13.8 | 0.51 | 0.17 | 100 | 37.4 | 100 | – | –
O=C(Nc1ccccc1F)c1cc2c(s1)-c1ccccc1N(C(=O)c1ccc(NC(=O)c3cccnc3N3CC4(CCOCC4)C3)cc1)CC2 [Example 15, 6-(4-(2-(7-oxa-2-azaspiro[3.5]nonan-2-yl)nicotinamido)benzoyl)-N-(2-fluorophenyl)-5,6-dihydro-4H-benzo[b]thieno [2,3-d]azepine-2-carboxamide] | > 14.5 | 0.36 | 0.4 | 100 | 20.4 | 85 | – | –
Cc1cnc(N2CC3(CCOCC3)C2)c(C(=O)Nc2ccc(C(=O)N3CCc4cc(C(=O)Nc5c(F)cccc5Cl)sc4-c4ccccc43)cc2)c1 [Example 39, N-(2-chloro-6-fluorophenyl)-6-(4-(5-methyl-2-(7-oxa-2-azaspiro[3.5]nonan-2-yl)nicotinamido)benzoyl)-5,6-dihydro-4H-benzo[b]thieno[2,3-d]azepine-2-carboxamide] | > 13.6 | 0.057 | < 0.014 | 100 | 17.3 | 77 | – | –
Cc1cccc(F)c1NC(=O)c1cc2c(s1)-c1ccccc1N(C(=O)c1ccc(NC(=O)c3cc4c(nc3N3CC5(CCOCC5)C3)CCC4)cc1)CC2 [Example 8, 6-(4-(2-(7-Oxa-2-azaspiro[3.5]nonan-2-yl)-6,7-dihydro-5H-cyclopenta[b]pyridine-3-carboxamido)benzoyl)-N-(2-fluoro-6-methylphenyl)-5,6-dihydro-4H-benzo[b]thieno[2,3-d]azepine-2-carboxamide] | > 13.5 | 0.13 | 0.27 | – | 1.3 | – | 88 | 100
Cc1cnc(N2CC3(CCOCC3)C2)c(C(=O)Nc2ccc(C(=O)N3CCc4cc(C(=O)Nc5ccccc5F)sc4-c4ccccc43)cc2)c1 [Example 33, N-(2-fluorophenyl)-6-(4-(5-methyl-2-(7-oxa-2-azaspiro [3.5]nonan-2-yl)nicotinamido)benzoyl)-5,6-dihydro-4H-benzo[b]thieno[2,3-d]azepine-2-carboxamide] | > 14.2 | 0.19 | < 0.014 | 100 | 9.7 | 74 | – | –
O=C(Nc1ccccc1Cl)c1cc2c(s1)-c1ccccc1N(C(=O)c1ccc(NC(=O)c3cccnc3N3CC4(CCOCC4)C3)cc1)CC2 [Example 16, 6-(4-(2-(7-oxa-2-azaspiro[3.5]nonan-2-yl)nicotinamido)benzoyl)-N-(2-chlorophenyl)-5,6-dihydro-4H-benzo[b]thieno [2,3-d]azepine-2-carboxamide] | > 14.2 | 0.93 | 0.76 | 100 | 142 | 63 | – | –
O=C(Nc1c(F)cccc1Cl)c1cc2c(s1)-c1ccccc1N(C(=O)c1ccc(NC(=O)c3cccnc3N3CC4(CCOCC4)C3)cc1)CC2 [Example 26, 6-(4-(2-(7-oxa-2-azaspiro[3.5]nonan-2-yl)nicotinamido)benzoyl)-N-(2-chloro-6-fluorophenyl)-5,6-dihydro-4H-benzo[b]thieno[2,3-d]azepine-2-carboxamide] | > 13.8 | 0.14 | 0.12 | 95 | 9.3 | 73 | – | –
O=C(Nc1c(F)cccc1F)c1cc2c(s1)-c1ccccc1N(C(=O)c1ccc(NC(=O)c3cc4c(nc3N3CC5(CCOCC5)C3)CCC4)cc1)CC2 [Example 75, 6-(4-(2-(7-oxa-2-azaspiro[3.5]nonan-2-yl)-6,7-dihydro-5H-cyclopenta[b]pyridine-3-carboxamido)benzoyl)-N-(2,6-difluorophenyl)-5,6-dihydro-4H-benzo[b]thieno[2,3-d] azepine-2-carboxamide] | > 13.4 | 0.25 | 0.1 | – | 2.3 | 100 | 84 | –
